Reference: patent US11058756B2, “Compositions and methods of treating autoimmune disease by reducing enterococcus” (YALE UNIVERSITY, priority 2017, dated 2021)

How the values were obtained:
(NZWxBXSB)F1 mice = experiment: Serum ELISAs for anti-dsDNA, anti-RNA, anti-β2GPI IgG, ERV gp70 protein and anti-ERV gp70 immune complexes; format: in vivo, mouse
From the text: (§1) Mice were cohoused for 3 to 4 weeks before antibiotic treatment to allow for equilibration of the microbiota. Single antibiotic or broad-spectrum antibiotic administration consisted of metronidazole (1 g/liter; Fisher Scientific), neomycin (1 g/liter; Fisher Scientific), ampicillin (1 g/liter; Sigma) and vancomycin (0.5 g/liter; Acros Organics) in the drinking water for up to 22 weeks or a targeted regiment for 2 weeks and then replaced with regular water for the duration of the experiment. For broad-spectrum antibiotic experiments (vancomycin, ampicillin, metronidazole, and neomycin combined), sweetener (Equal, 4 g/L) was added to both the antibiotics and control water due to the metallic taste of metronidazole. Twenty-four hours after cessation of antibiotic water, mice were administered 1×10^6 CFUs of vancomycin-resistant E. gallinarum via oral gavage, isolated from liver tissue of a vancomycin-treated mouse that continued to show signs of autoimmune disease (high-level resistance was confirmed by vanC gene PCR). E. gallinarum was grown at 37° C. in Gifu Anaerobic Broth (HIMEDIA Laboratories) to early stationary phase under anaerobic conditions (82% N2, 15% CO2, 3% H2 by volume) in an anaerobic chamber and diluted in PBS to 10^7 CFUs.
Serum antibodies specific for dsDNA and b2GPI were determined using standardized ELISAs (anti-dsDNA antibody, Abcam; and, Mouse/Rat Apolipoprotein H Antibody, R&D Systems; respectively). Anti-RNA was determined by ELISA using defined positive controls (Human/Mouse RNA Polymerase II Antibody, R&D systems). Anti-ERV gp70 ICs and ERV gp70 protein were determined by OD450 signal comparisons (Evans et al., 1990, J Virol, 64, 6176-6183). For anti-dsDNA ELISAs, DNA-BIND™ (Corning) plates were coated with 100 μg/ml salmon sperm DNA (Fisher Scientific) and blocked in 0.1M PBS, 3.0% BSA, 5.0% FBS. The serum was diluted 1:1000 for the assay and incubated for 1 hour at 37° C. Wells were washed and incubated for 1 hour at 37° C. with rabbit anti-mouse IgG (Fisher Scientific) conjugated to HRP and developed with TMB substrate solution. 2M sulfuric acid (Sigma) solution was used to stop development. The concentration of anti-dsDNA was determined by reading the absorbance at 450 nm/570 nm reference.
For anti-RNA ELISAs, DNA-BIND™ (Corning) plates were coated with […] yeast RNA (Ambion) and blocked in 0.1M PBS, 0.05% Tween-20, 5.0% FBS. The serum was diluted 1:1000 for the assay and incubated for 1 hour at 37° C. Wells were washed and incubated for 1 hour at 37° C. with rabbit anti-mouse IgG (Fisher Scientific) conjugated to HRP and developed with TMB substrate solution. 2M sulfuric acid (Sigma) solution was used to stop development. The concentration of anti-RNA IgG was determined by reading the absorbance at 450 nm/570 nm reference.
For anti-b2GPI ELISAs, Corning® 96-well EIA/RIA easy Wash™ clear flat-bottom polystyrene high-bind microplates were coated with […] recombinant b2GPI/ApoH (R&D Systems) and blocked in Pierce Protein-Free (PBS) Blocking Buffer (Thermo Scientific). The serum was diluted 1:100 for the assay and incubated at room temperature for 2 hours on a shaker. Wells were washed and incubated while shaking for 30 minutes at room temperature with goat anti-mouse IgG (Fisher Scientific) conjugated to HRP and developed with TMB substrate solution. 2M sulfuric acid (Sigma) solution was used to stop development. The concentration of anti-b2GPI was determined by reading the absorbance at 450 nm/650 nm reference. […]

E. gallinarum = experiment: Assessment of bacterial translocation and tissue burden (anaerobic tissue cultures, CFU); format: in vivo, mouse; conditions: FIG. 1K-1N
From the text: Mice were cohoused for 3 to 4 weeks before antibiotic treatment to allow for equilibration of the microbiota. Single antibiotic or broad-spectrum antibiotic administration consisted of metronidazole (1 g/liter; Fisher Scientific), neomycin (1 g/liter; Fisher Scientific), ampicillin (1 g/liter; Sigma) and vancomycin (0.5 g/liter; Acros Organics) in the drinking water for up to 22 weeks or a targeted regiment for 2 weeks and then replaced with regular water for the duration of the experiment. For broad-spectrum antibiotic experiments (vancomycin, ampicillin, metronidazole, and neomycin combined), sweetener (Equal, 4 g/L) was added to both the antibiotics and control water due to the metallic taste of metronidazole. […] E. gallinarum was grown at 37° C. in Gifu Anaerobic Broth (HIMEDIA Laboratories) to early stationary phase under anaerobic conditions (82% N2, 15% CO2, 3% H2 by volume) in an anaerobic chamber and diluted in PBS to 10^7 CFUs.
14-, 16- and 18-week-old mice underwent sterile laparotomy and nose, mouth, small intestine (luminal and adherent fractions), mesenteric veins, mesenteric lymph nodes (MLN), liver and spleen were aseptically collected in BBL Mycoflask Thioglycollate (Fluid) Prepared Media (BD Diagnostic Systems) and incubated for 72 hours in anaerobic conditions at 37° C. Gifu Media Agar plates were streaked with the content from the BBL Mycoflask Thioglycollate and incubated for 48 hours in an anaerobic chamber at 37° C. Colony Formation Units (CFU) were counted and concentration determined per milligram of tissue. Single colonies were grown in Gifu anaerobic media for 48 hours in an anaerobic chamber at 37° C. and aliquots from each sample were collected and centrifuge for 10 minutes at 10000×g. DNA was extracted from bacterial pellets using DNeasy Blood and Tissue kit (Qiagen) and submitted to PCR amplification of the 16S region and Sanger sequencing. In addition, purified DNA was used for eubacterial, Enterococcus genus and Enterococcus gallinarum PCR assays.

MLN Th17 cells = experiment: Vancomycin in vitro assay on MLN cell cultures (Th17 frequency by FACS); format: cell-based, mouse; conditions: vancomycin 16 μg/mL, anti-CD3/anti-CD28, 3 days (FIG. 19D legend)
Description: […] In vitro samples were stained as described above. All samples were collected using an LSR II flow cytometer (Becton Dickinson). All flow cytometry data were analyzed by FlowJo version 9.7 (Tree Star).

ERV gp70 = experiment: Liver ERV gp70 expression by RT-qPCR after oral antibiotics; format: in vivo, mouse; conditions: oral vancomycin; FIG. 7
From the text: as §1, with “E. gallinarum was grown at 37° C. in Gifu Anaerobic Broth (HIMEDIA Laboratories) to early stationary phase under anaerobic conditions (82% N2, 15% CO2, 3% H2 by volume) in an anaerobic chamber and diluted in PBS to 10^7 CFUs.” left out
RNA was isolated from hepatocytes, dendritic cells or ileum using the RNAeasy plus mini kit (Qiagen) according to the manufacturer's instructions. cDNA was generated using the QuantiTect Reverse Transcription Kit (Qiagen). […]

## CN[C@H](CC(C)C)C(=O)N[C@H]1C(=O)N[C@@H](CC(N)=O)C(=O)N[C@H]2C(=O)N[C@H]3C(=O)N[C@H](C(=O)N[C@H](C(=O)O)c4cc(O)cc(O)c4-c4cc3ccc4O)[C@H](O)c3ccc(c(Cl)c3)Oc3cc2cc(c3O[C@@H]2O[C@H](CO)[C@@H](O)[C@H](O)[C@H]2O[C@H]2C[C@](C)(N)[C@H](O)[C@H](C)O2)Oc2ccc(cc2Cl)[C@H]1O [vancomycin]
(NZWxBXSB)F1 mice; single antibiotic in drinking water, 16 weeks of age, FIG. 1B-1C
  lupus-related autoantibodies (serum anti-dsDNA and anti-RNA IgG): prevented
(NZWxBXSB)F1 mice; vancomycin 0.5 g/L in drinking water from 6 weeks of age, FIG. 7
  anti-β2GPI: suppressed
(NZWxBXSB)F1 mice; vancomycin 0.5 g/L in drinking water from 6 weeks of age, FIG. 7K
  serum ERV gp70: suppressed
(NZWxBXSB)F1 mice; vancomycin 0.5 g/L in drinking water from 6 weeks of age, FIG. 7L
  anti-ERV gp70 immune complexes (ICs): suppressed
E. gallinarum; (NZWxBXSB)F1 mice, antibiotics in drinking water, 16-18 weeks of age
  Translocation (bacterial growth in mesenteric veins, MLN, liver, spleen): reduced
E. gallinarum; mesenteric veins, MLN, liver, spleen, P=0.0337 and P<0.005
  suppression of growth of E. gallinarum in tissues, VANC compared to NEO-treated animals: significantly higher
MLN Th17 cells
  direct influence on immune cells in vitro (MLN Th17 cell frequency): no direct influence
ERV gp70
  hepatic ERV gp70: suppressed
